Test results reported in US20140018316A1, “OPHTHALMIC PHARMACEUTICAL COMPOSITION” (Hayashibara Co., Ltd., priority 2005, published 2014).

Test system: circular corneal fragment extracted from a pig eye ball
Experiment: Corneal walleye/cloudiness and edema of pig corneal fragments soaked in test or control solutions
Design: degree of corneal walleye/cloudiness (relative value): scale not given here; key to corneal edema: ◯: Corneal edema was observed.; —: No corneal edema was observed
Settings: for corneal edema / degree of corneal walleye/cloudiness (relative value): 100 mM in physiological saline
Experimental: Experiment to examine the influence of cyclic tetrasaccharide on corneal walleye/cloudiness was conducted as follows: A physiological saline containing 100 mM cyclic tetrasaccharide was previously prepared for use as a test solution by dissolving a cyclic tetrasaccharide crystal, pentahydrate, which had been prepared by the later described method in Example for Reference 2. As a positive control solution, it was prepared a physiological saline containing 100 mM α,α-trehalose, a reagent grade specimen, commercialized by Hayashibara Biochemical Laboratories, Inc., Okayama, Japan; and as a negative control solution, physiological saline was used. Two milliliters of any one of the above three kinds of aqueous solutions were added to respective two wells in a commercialized 24-well culture plate. To each well in each culture plate a circular corneal fragment, which had been extracted from a pig eye ball obtained from a slaughterhouse by using a trephine for corneal transplantation, was placed and macroscopically and microscopically observed for changing in both the degree of corneal walleye/cloudiness and the change of corneal shape such as corneal edema. The macroscopic and microscopic observations were done just after the corneas were placed in the wells at (0) and at 1, 2, 6, 24, 48 and 72 hours after their placing. The methods of macroscopic and microscopic observations and the analysis of the time course change of corneal walleye/cloudiness were conducted by the same ones as used in Experiment 1. Tables 3 and 4 show the transition of corneal walleye/cloudiness and that of the corneal edema, respectively.

OCC1OC2OCC3O[C@H](O[C@H]4C(O)C(CO)OC(OCC5O[C@H](O[C@@H](C1O)C2O)C(O)C(O)[C@@H]5O)C4O)C(O)C(O)[C@@H]3O (stereo partly drawn) [Test solution, cyclo{→6)-α-D-glucopyranosyl-(1→3)-α-D-glucopyranosyl-(1→6)-α-D-glucopyranosyl-(1→3)-α-D-glucopyranosyl-(1→}]
corneal edema (1 hour): — | degree of corneal walleye/cloudiness (relative value) (1 hour): 11 | corneal edema (2 hours): — | degree of corneal walleye/cloudiness (relative value) (2 hours): 11 | corneal edema (6 hours): — | degree of corneal walleye/cloudiness (relative value) (6 hours): 13 | corneal edema (24 hours): — | degree of corneal walleye/cloudiness (relative value) (24 hours): 16 | corneal edema (48 hours): — | degree of corneal walleye/cloudiness (relative value) (48 hours): 16 | corneal edema (72 hours): — | degree of corneal walleye/cloudiness (relative value) (72 hours): 19 | corneal edema (time 0): — | degree of corneal walleye/cloudiness (relative value) (time 0): 10 | corneal edema (in words) (100 mM, up to 72 hours): No occurrence of corneal edema was observed
